Results: patent publication US11242337B2, “Compounds useful for treating gastrointestinal tract disorders” (Ardelyx, Inc., priority 2017, dated 2022)
Like-named read-outs stand apart in the source and are kept apart here.

Tested on: absorption of sodium from the intestinal lumen
Test: Inhibition of intestinal sodium absorption in mice
Assay type: in vivo
Details: CD-1 mice, 15 mg/kg oral gavage twice daily; for Fecal fluid content (Δ from vehicle): day 3, change from vehicle group mean; for response vs control in vivo at 15 mg/kg: Mus musculus, 72 h
Description: Urinary and fecal sodium excretions were measured to assess the ability of selected example compounds to inhibit the absorption of sodium from the intestinal lumen. In addition, an assessment of the absence or presence of diarrhea in response to compound treatment was made. Approximately eight-week old, male, CD-1 mice were purchased from Envigo (Livermore, Calif.), were housed 6 per cage and acclimated for at least 48 hours before study initiation. Animals were fed Harlan Teklad Global TD.160470 rodent chow (Madison, Wis.), standard laboratory rodent chow Harlan Teklad Global 2018 with the addition of 0.4% inorganic phosphorous. […] To initiate the study, mice were weighed and then individually placed in metabolic cages. Following a 3-day acclimation period to the metabolic cage, a 24-hr baseline collection of urine and feces was performed. […] Each day, measurements of body weight. 24-hour food intake, water intake, urine volume and wet fecal weight were recorded, along with any observation of diarrhea. Fecal samples were dried using a lyophilizer for at least 3 days, following which dry weight was recorded and fecal fluid content was calculated based on the difference between the wet and dry stool weights. Fecal fluid content on day 3 of compound treatment was calculated as a change from the vehicle group mean. For urine samples, the volumes were determined gravimetrically. Feces and urine were analyzed for sodium content by microwave plasma-atomic emission spectroscopy or ion chromatography, respectively. Urine samples were analyzed on an ion chromatography system (Thermo Fisher ICS-3000 or ICS-5000+) coupled with conductivity detectors. Chromatographic separation of cations was performed using an IonPac CS12A (Thermo Fisher) 2×250 mm analytical column with an isocratic elution using […] methanesulfonic acid. Concentrations were interpolated from a a standard curve (prepared in 10 mM HCl) for sodium ion based on retention time and peak area. Fecal sample analysis by Microwave Plasma Atomic Emission Spectrometry (MP-AES). Dry fecal samples were ground into a fine powder on a homogenizer and the ground samples (400-600 mg aliquots weighed) were digested with nitric acid by microwave method (Mars 6). These digested samples were diluted with 1% Nitric acid and analyzed on Agilent 4100 MP-AES. Concentrations were calculated relative to a standard curve (prepared in 1% Nitric acid) for sodium based on the signal intensity. Sodium was detected at a wavelength of 588.995 nm. Twenty-four-hour urinary sodium excretion (ma/24-hours) was calculated by multiplying urinary sodium concentration by 24-hour urine volume. Twenty-four-hour fecal sodium excretion (mg/24-hours) was calculated by multiplying fecal sodium concentration by 24-hour dry fecal weight. The urinary and fecal sodium excretion on day 3 of compound treatment were normalized to dietary sodium intake and expressed as a percentage of the vehicle mean.

[1] = day 3, normalized to dietary sodium intake
[2] = day 3, normalized to dietary sodium intake, read-out: Fecal Na Excretion (% of vehicle)
[3] = day 3, normalized to dietary sodium intake, read-out: Urinary Na Excretion (% of vehicle)

Molecule | Fecal fluid content (Δ from vehicle) | Fecal Na Excretion (% of vehicle) [1] | Urinary Na Excretion (% of vehicle) [1] | response vs control in vivo at 15 mg/kg [2] [%] | response vs control in vivo at 15 mg/kg [3] [%]
3-[2-(2-[2-[(4-[[(1S,2S)-4,6-Dichloro-2-[(3R)-3-[methyl(propan-2-yl)amino]piperidin-1-yl]-2,3-dihydro-1H-inden-1-yl]oxy]benzene) sulfonamido]ethoxy]ethoxy)ethyl]-1-[4-([[2-(2-[2-[(4-[[(1S,2S)-4,6-dichloro-2-[(3R)-3-[methyl(propan-2-yl)amino]piperidin-1-yl]-2,3-dihydro-1H-inden-1-yl]oxy]benzene)sulfonamido]ethoxy]ethoxy)ethyl]carbamoyl]amino)butyl]urea; bis(trifluoroacetic acid) [Example 78] | A (<5) | A (<150%) | A (>70%) |  | 
CN(C)[C@H]1Cc2c(Cl)cc(Cl)cc2[C@@H]1Oc1ccc(S(=O)(=O)NCCOCCOCCNC(=O)NCCCCNC(=O)NCCOCCOCCNS(=O)(=O)c2ccc(O[C@H]3c4cc(Cl)cc(Cl)c4C[C@@H]3N(C)C)c(F)c2)cc1F [Example 23, 3-[2-(2-[2-[(4-[[(1S,2S)-4,6-Dichloro-2-(dimethylamino)-2,3-dihydro-1H-inden-1-yl]oxy]-3-fluorobenzene)sulfonamido]ethoxy]ethoxy)ethyl]-1-[4-([[2-(2-[2-[(4-[[(1S,2S)-4,6-dichloro-2-(dimethylamino)-2,3-dihydro-1H-inden-1-yl]oxy]-3-fluorobenzene)sulfonamido]ethoxy]ethoxy)ethyl]carbamoyl]amino)butyl]urea; bis(trifluoroacetic acid)] | B (5-10) |  |  | 150 to 200 | 50 to 70
Cc1cc(S(=O)(=O)NCCOCCOCCNC(=O)NCCCCNC(=O)NCCOCCOCCNS(=O)(=O)c2ccc(O[C@H]3c4cc(Cl)cc(Cl)c4C[C@@H]3N3CCC[C@@H](N(C)C)C3)c(C)c2)ccc1O[C@H]1c2cc(Cl)cc(Cl)c2C[C@@H]1N1CCC[C@@H](N(C)C)C1 [Example 26, 3-[2-(2-[2-[(4-[[(1S,2S)-4,6-Dichloro-2-[(3R)-3-(dimethylamino)piperidin-1-yl]-2,3-dihydro-1H-inden-1-yl]oxy]-3-methylbenzene)sulfonamido]ethoxy]ethoxy)ethyl]-1-[4-([[2-(2-[2-[4-[[(1S,2S)-4,6-dichloro-2-[(3R)-3-(dimethylamino)piperidin-1-yl]-2,3-dihydro-1H-inden-1-yl]oxy]-3-methylbenzenesulfonamido]ethoxy]ethoxy)ethyl]carbamoyl]amino)butyl]urea; bis(trifluoroacetic acid)] | B (5-10) |  |  | 150 to 200 | 50 to 70
Cc1cc(Cl)cc2c1C[C@H](N1CCC[C@@H](N(C)C)C1)[C@H]2Oc1ccc(S(=O)(=O)NCCOCCOCCNC(=O)NCCCCNC(=O)NCCOCCOCCNS(=O)(=O)c2ccc(O[C@H]3c4cc(Cl)cc(C)c4C[C@@H]3N3CCC[C@@H](N(C)C)C3)cc2)cc1 [Example 28, 3-[2-(2-[2-[(4-[[(1S,2S)-6-Chloro-2-[(3R)-3-(dimethylamino)piperidin-1-yl]-4-methyl-2,3-dihydro-1H-inden-1-yl]oxy]benzene)sulfonamido]ethoxy]ethoxy)ethyl]-1-[4-([[2-(2-[2-[(4-[[(1S,2S)-6-chloro-2-[(3R)-3-(dimethylamino)piperidin-1-yl]-4-methyl-2,3-dihydro-1H-inden-1-yl]oxy]benzene)sulfonamido]ethoxy]ethoxy)ethyl]carbamoyl]amino)butyl]urea; bis(trifluoroacetic acid)] | B (5-10) |  |  | 150 to 200 | > 70
Cc1cc(S(=O)(=O)NCCOCCOCCNC(=O)NCCCCNC(=O)NCCOCCOCCNS(=O)(=O)c2ccc(O[C@H]3c4cc(Cl)cc(C)c4C[C@@H]3N3CCC[C@@H](N(C)C)C3)c(C)c2)ccc1O[C@H]1c2cc(Cl)cc(C)c2C[C@@H]1N1CCC[C@@H](N(C)C)C1 [Example 29] | A (<5) |  |  | 150 to 200 | 50 to 70
Cc1cc(Cl)cc2c1C[C@H](N1CCNCC1)[C@H]2Oc1ccc(S(=O)(=O)NCCOCCOCCNC(=O)NCCCCNC(=O)NCCOCCOCCNS(=O)(=O)c2ccc(O[C@H]3c4cc(Cl)cc(C)c4C[C@@H]3N3CCNCC3)cc2)cc1 [Example 34, 3-[2-(2-[2-[(4-[[(1S,2S)-6-Chloro-4-methyl-2-(piperazin-1-yl)-2,3-dihydro-1H-inden-1-yl]oxy]benzene)sulfonamido]ethoxy]ethoxy)ethyl]-1-[4-([[2-(2-[2-[(4-[[(1S,2S)-6-chloro-4-methyl-2-(piperazin-1-yl)-2,3-dihydro-1H-inden-1-yl]oxy]benzene)sulfonamido]ethoxy]ethyl)ethyl]carbamoyl]amino)butyl]urea; bis(trifluoroacetic acid)] | B (5-10) |  |  | 150 to 200 | 50 to 70
Cc1cc(S(=O)(=O)NCCOCCOCCNC(=O)NCCCCNC(=O)NCCOCCOCCNS(=O)(=O)c2ccc(O[C@H]3c4cc(Cl)cc(C)c4C[C@@H]3N3CCNCC3)c(C)c2)ccc1O[C@H]1c2cc(Cl)cc(C)c2C[C@@H]1N1CCNCC1 [Example 35, 3-[2-(2-[2-[(4-[[(1S,2S)-6-Chloro-4-methyl-2-(piperazin-1-yl)-2,3-dihydro-1H-inden-1-yl]oxy]-3-methylbenzene)sulfonamido]ethoxy]ethoxy)ethyl]-1-[4-([[2-(2-[2-[(4-[[(1S,2S)-6-chloro-4-methyl-2-(piperazin-1-yl)-2,3-dihydro-1H-inden-1-yl]oxy]-3-methylbenzene)sulfonamido]ethoxy]ethoxy)ethyl]carbamoyl]amino)butyl]urea; bis(trifluoroacetic acid)] | A (<5) |  |  | 150 to 200 | > 70
Cc1cc(Cl)cc2c1C[C@H](N1CCNCC1)[C@H]2Oc1ccc(S(=O)(=O)NCCOCCOCCNC(=O)NCCCCNC(=O)NCCOCCOCCNS(=O)(=O)c2ccc(O[C@H]3c4cc(Cl)cc(C)c4C[C@@H]3N3CCNCC3)c(F)c2)cc1F [Example 36, 3-[2-(2-[2-[(4-[[(1S,2S)-6-Chloro-4-methyl-2-(piperazin-1-yl)-2,3-dihydro-1H-inden-1-yl]oxy]-3-fluorobenzene)sulfonamido]ethoxy]ethoxy)ethyl]-1-[4-([[2-(2-[2-[(4-[[(1S,2S)-6-chloro-4-methyl-2-(piperazin-1-yl)-2,3-dihydro-1H-inden-1-yl]oxy]-3-fluorobenzene)sulfonamido]ethoxy]ethoxy)ethyl]carbamoyl]amino)butyl]urea; bis(trifluoroacetic acid)] | B (5-10) |  |  | 150 to 200 | 50 to 70
Cc1cc(S(=O)(=O)N2CC[C@@H](COCCOCCNC(=O)NCCCCNC(=O)NCCOCCOC[C@@H]3CCN(S(=O)(=O)c4ccc(O[C@H]5c6cc(Cl)cc(Cl)c6C[C@@H]5N(C)C)c(C)c4)C3)C2)ccc1O[C@H]1c2cc(Cl)cc(Cl)c2C[C@@H]1N(C)C [Example 45, 3-[2-(2-[[(3R)-1-[(4-[[(1S,2S)-4,6-Dichloro-2-(dimethylamino)-2,3-dihydro-1H-inden-1-yl]oxy]-3-methylbenzene)sulfonyl]pyrrolidin-3-yl]methoxy]ethoxy)ethyl]-1-[4-([[2-(2[[(3R)-1-[(4-[[(1S,2S)-4,6-dichloro-2-(dimethylamino)-2,3-dihydro-1H-inden-1-yl]oxy]-3-methylbenzene)sulfonyl]pyrrolidin-3-yl]methoxy]ethoxy)ethyl]carbamoyl]amino)butyl]urea; bis(trifluoroacetic acid)] | A (<5) |  |  | < 150 | > 70
